# Source: patent publication US9029360B2, “Pyrazolopyrimidines as metabotropic glutamate 5 receptor antagonists” (Boehringer Ingelheim International GmbH, priority 2012, dated 2015)
# Assays:
# 11β-HSD1 = 11β-HSD1 (Homo sapiens (Human), UniProt P28845); assay: 11β-hydroxysteroid dehydrogenase (HSD) 1 Assay (Assay 2), HTRF; format: biochemical; details: for IC50: human liver microsomes, cortisol generated from cortisone, HTRF, read-out: 11βHSD1 IC50
# Description: The compounds of this invention or the physiological acceptable salts thereof were tested for their inhibitory effect on the enzyme 11β-hydroxysteroid dehydrogenase (HSD) 1.
# B. 11β-hydroxysteroid dehydrogenase (HSD) 1 Assay (Assay 2)
# Compounds were incubated for 1 hour at 37° C. in Tris buffer (20 mM tris, 5 mM EDTA, pH 6.0) containing NADPH (200 μM) and cortisone (80 nM). Cortisol generated in the reaction was then detected by a competitive immunoassay involving two HTRF conjugates: cortisol linked to XL665 and anticortisol antibody labeled with Europium cryptate. The incubation period for detection reaction was 2 hours. The amount of cortisol is determined by reading the time-resolved fluorescence of the wells (Ex 320/75 nm; Em 615/8.5 nm and 665/7.5 nm). The ratio of the two emission signals was then calculated (Em665*10000/Em615). […] Each assay also comprised a calibration curve with cortisol to transform the fluorescent data into cortisol concentrations.
# Percent inhibition (% CTL) of each compound is determined relative to the carbenoxolone signal and IC50 curves were generated.
# human mGlu5a receptor = human mGlu5a receptor (Homo sapiens (Human), UniProt P41594); assay: mGlu5 NAM FLIPR Assay (Assay 1); format: cell-based; details: for IC50: HEK293 cells stably expressing human mGlu5a, antagonism of EC90 glutamate, [Ca]i
# Description: A. mGlu5 NAM FLIPR Assay (Assay 1)
# Activation of the mGluR5 receptor expressed in cell lines results in an increase in intracellular calcium concentration. Using calcium sensitive fluorescent dyes and a suited fluorescence plate reader this functional response is detectable and quantifiable. This technique could be used to characterize pharmacological modifications of the mGluR5 receptor.
# [Ca]i measurements were performed in HEK293 cells stably expressing the full-length human mGlu5a receptor under the control of a tet-regulated promoter. Cells were cultivated in Dulbecco's modified eagle's medium (DMEM) with 10% fetal calf serum, 100 μg/ml HygromycinB, 500 μg/ml G418 and 2 μg/ml Tetracycline in a 37°, 95% humidity and 5% CO2 incubator. Confluent cell cultures were split on a bi-weekly schedule.
# 72 hours prior to the assay run mGluR5a expression was induced by replacing the culture medium by DMEM with 10% fetal calf serum without antibiotics. 24 hours prior to the assay run, cell medium was replaced after two wash steps by DMEM, 10% fetal calf serum without glutamine and phenol red. On the assay day, cells were detached from the culture flask by versene, washed, resuspended in a modified Ringer solution with 5 mM Glucose and 10 mM HEPES pH7.4, and plated on Poly-D-Lysine coated 384-well plates with a density of 10.000 cells/60 μl per well. After a seeding time of 1 hour in the incubator the cells were dye-loaded by adding 20 μl of a 4-fold concentrated dye solution from the Calcium 4 kit (Molecular Devices Inc., R8141) according to the manufacturer's manual and incubated for an additional 100 minutes. Compounds were prepared by a 11 point serial dilution in DMSO and a final dilution step into assay puffer (modified Ringer) to ensure a final DMSO concentration of 1% in the assay.
# Measurements were done in a two-step procedure. A first measurement was performed directly after the addition of compounds to the cell plates to quantify and correct for compound related non specific effects (e.g. auto fluorescence). 5 minutes later, the antagonistic activities of the compounds were measured by addition of a EC90 concentration of the agonist glutamate (the EC90 concentration was controlled by glutamate dose-response curves). All measurements were done with a fluorimetric imaging plate reader (FLIPR, Molecular Devices Inc.).
# IC50 values and Hill slopes were derived from 11-point four parametric non-linear curve fittings with the AssayExplorer software using peak heights of fluorescence signals.
# 11β-HSD1, sequence (P28845 whole entry): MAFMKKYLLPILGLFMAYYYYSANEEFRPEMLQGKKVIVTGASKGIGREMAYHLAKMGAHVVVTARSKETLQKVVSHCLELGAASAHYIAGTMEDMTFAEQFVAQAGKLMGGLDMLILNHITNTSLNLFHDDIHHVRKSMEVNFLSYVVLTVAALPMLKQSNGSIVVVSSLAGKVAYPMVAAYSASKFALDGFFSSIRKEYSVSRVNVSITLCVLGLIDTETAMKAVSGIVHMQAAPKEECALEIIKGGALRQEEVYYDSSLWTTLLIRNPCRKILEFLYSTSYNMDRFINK
# human mGlu5a receptor, sequence (P41594 other isoform, or with tags, fused parts or gaps): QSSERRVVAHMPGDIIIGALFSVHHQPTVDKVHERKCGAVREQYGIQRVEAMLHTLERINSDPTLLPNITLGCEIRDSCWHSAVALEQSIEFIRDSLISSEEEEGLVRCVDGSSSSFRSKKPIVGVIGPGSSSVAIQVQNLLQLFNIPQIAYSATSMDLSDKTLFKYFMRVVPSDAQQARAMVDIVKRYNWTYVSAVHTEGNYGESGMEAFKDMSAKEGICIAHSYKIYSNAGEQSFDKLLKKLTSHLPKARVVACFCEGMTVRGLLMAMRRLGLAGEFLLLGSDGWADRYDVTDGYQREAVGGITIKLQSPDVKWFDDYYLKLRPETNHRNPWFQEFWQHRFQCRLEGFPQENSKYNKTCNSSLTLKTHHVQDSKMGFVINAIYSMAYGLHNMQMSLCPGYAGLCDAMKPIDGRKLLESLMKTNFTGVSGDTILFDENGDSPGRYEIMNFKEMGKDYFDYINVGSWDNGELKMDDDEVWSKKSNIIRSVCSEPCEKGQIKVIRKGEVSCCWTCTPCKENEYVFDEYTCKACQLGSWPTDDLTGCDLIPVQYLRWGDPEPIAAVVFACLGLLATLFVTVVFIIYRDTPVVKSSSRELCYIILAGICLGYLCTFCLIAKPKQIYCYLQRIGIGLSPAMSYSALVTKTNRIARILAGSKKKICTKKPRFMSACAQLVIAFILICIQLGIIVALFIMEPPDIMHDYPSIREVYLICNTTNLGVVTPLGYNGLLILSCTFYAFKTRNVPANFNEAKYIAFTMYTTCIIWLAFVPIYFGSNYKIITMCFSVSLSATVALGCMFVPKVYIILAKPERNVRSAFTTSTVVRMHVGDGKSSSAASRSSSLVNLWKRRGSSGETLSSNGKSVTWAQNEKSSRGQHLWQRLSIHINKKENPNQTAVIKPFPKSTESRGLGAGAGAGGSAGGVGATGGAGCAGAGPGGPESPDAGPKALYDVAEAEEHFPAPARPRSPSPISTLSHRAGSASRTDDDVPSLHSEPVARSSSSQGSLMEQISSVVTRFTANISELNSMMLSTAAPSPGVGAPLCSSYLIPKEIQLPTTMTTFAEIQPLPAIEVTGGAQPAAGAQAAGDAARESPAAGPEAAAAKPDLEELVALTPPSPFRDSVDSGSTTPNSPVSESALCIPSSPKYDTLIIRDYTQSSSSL
"activity on 11βHSD1 (assay 2), in words (11β-HSD1)","activity in assay 1 (mGlu5), in words (human mGlu5a receptor)",IC50 (human mGlu5a receptor) [nM],IC50 (11β-HSD1) [µM],Compound
inactivity,inactivity,> 10000,,"O=C(c1cc2ncc(Br)cn2n1)N1CCCC1 [A, reference compound]"
inactivity,inactivity,> 10000,> 10,"O=C(c1cc2ncc(Br)cn2n1)N1CCCCCC1 [B, reference compound]"
,,> 10000,> 10,"COc1ccc(-c2cc(C(F)(F)F)n3nc(C(=O)N4CCc5ncsc5CC4)cc3n2)cc1 [C, reference compound]"
,,> 10000,> 10,"Cc1cc(C(F)(F)F)n2nc(C(=O)N3CCc4ncsc4CC3)cc2n1 [D, reference compound]"
,,> 10000,> 10,"COc1cccc(-c2cc(C(F)(F)F)n3nc(C(=O)N4CCc5ncsc5CC4)cc3n2)c1 [E, reference compound]"
,,146,> 10,"O=C(c1cc2ncc(Br)cn2n1)N1CCc2ccc(Cl)nc2CC1 [Example 1, (6-Bromo-pyrazolo[1,5-a]pyrimidin-2-yl)-(2-chloro-5,6,8,9-tetrahydro-pyrido[2,3-d]azepin-7-yl)-methanone]"
,,230,> 10,"COc1ccc2c(n1)CCN(C(=O)c1cc3ncc(Br)cn3n1)CC2 [Example 2, (6-Bromo-pyrazolo[1,5-a]pyrimidin-2-yl)-(2-methoxy-5,6,8,9-tetrahydro-pyrido[2,3-d]azepin-7-yl)-methanone]"
,,1380,> 10,"O=C(c1cc2ncc(Br)cn2n1)N1CCc2ccsc2CC1 [Example 3, (6-Bromo-pyrazolo[1,5-a]pyrimidin-2-yl)-(4,5,7,8-tetrahydro-thieno[2,3-d]azepin-6-yl)-methanone]"
,,33,> 10,"CCc1nc2c(s1)CCN(C(=O)c1cc3ncc(Br)cn3n1)CC2 [Example 4, (6-Bromo-pyrazolo[1,5-a]pyrimidin-2-yl)-(2-ethyl-4,5,7,8-tetrahydro-thiazolo[4,5-d]azepin-6-yl)-methanone]"
,,> 10000,> 10,"O=C(c1cc2ncc(Br)cn2n1)N1CCCCC1 [Example 4-21, reference compound]"
,,> 10000,> 10,"O=C(c1cc2ncc(Br)cn2n1)N1CCOCC1 [Example 4-22, reference compound]"
,,110,> 10,"O=C(c1cc2ncc(Br)cn2n1)N1CCc2ncsc2CC1 [Example 5, (6-Bromo-pyrazolo[1,5-a]pyrimidin-2-yl)-(4,5,7,8-tetrahydro-thiazolo[4,5-d]azepin-6-yl)-methanone]"
,,340,> 10,"O=C(c1cc2ncc(Br)cn2n1)N1CCc2cc(Cl)nnc2CC1 [Example 7, (6-Bromo-pyrazolo[1,5-a]pyrimidin-2-yl)-(3-chloro-5,6,8,9-tetrahydro-1,2,7-triaza-benzocyclohepten-7-yl)-methanone]"
,,1540,> 10,"COCc1nc2c(s1)CCN(C(=O)c1cc3ncc(Br)cn3n1)CC2 [Example 8, (6-Bromo-pyrazolo[1,5-a]pyrimidin-2-yl)-(2-methoxymethyl-4,5,7,8-tetrahydro-thiazolo[4,5-d]azepin-6-yl)-methanone]"
,,1420,> 10,Cc1cnc2cc(C(=O)N3CCc4ncsc4CC3)nn2c1 [Example 9]
,,59,> 10,"O=C(c1cc2ncc(Cl)cn2n1)N1CCc2ncsc2CC1 [Example 10, (6-Chloro-pyrazolo[1,5-a]pyrimidin-2-yl)-(4,5,7,8-tetrahydro-thiazolo[4,5-d]azepin-6-yl)-methanone]"
,,66,> 10,"O=C(c1cc2ncc(Br)cn2n1)N1CCc2[nH]c(=O)sc2CC1 [Example 11, 6-(6-Bromo-pyrazolo[1,5-a]pyrimidine-2-carbonyl)-3,4,5,6,7,8-hexahydro-thiazolo[4,5-d]azepin-2-one]"
,,148,> 10,"CC(C)c1nc2c(s1)CCN(C(=O)c1cc3ncc(Br)cn3n1)CC2 [Example 12, (6-Bromo-pyrazolo[1,5-a]pyrimidin-2-yl)-(2-isopropyl-4,5,7,8-tetrahydro-thiazolo[4,5-d]azepin-6-yl)-methanone]"
,,63,> 10,"Cc1nc2c(s1)CCN(C(=O)c1cc3ncc(Cl)cn3n1)CC2 [Example 13, (6-Chloro-pyrazolo[1,5-a]pyrimidin-2-yl)-(2-methyl-4,5,7,8-tetrahydro-thiazolo[4,5-d]azepin-6-yl)-methanone]"
,,603,> 10,"O=C(c1cc2ncc(Br)cn2n1)N1CCc2cccnc2CC1 [Example 14, (6-Bromo-pyrazolo[1,5-a]pyrimidin-2-yl)-(5,6,8,9-tetrahydro-pyrido[2,3-d]azepin-7-yl)-methanone]"
,,692,> 10,"Cn1cnc2c1CCN(C(=O)c1cc3ncc(Br)cn3n1)CC2 [Example 15, (6-Bromo-pyrazolo[1,5-a]pyrimidin-2-yl)-(1-methyl-4,5,7,8-tetrahydro-1H-imidazo[4,5-d]azepin-6-yl)-methanone]"
,,1280,> 10,"Cn1c2c(sc1=O)CCN(C(=O)c1cc3ncc(Br)cn3n1)CC2 [Example 16, 6-(6-Bromo-pyrazolo[1,5-a]pyrimidine-2-carbonyl)-3-methyl-3,4,5,6,7,8-hexahydro-thiazolo[4,5-d]azepin-2-one]"
,,550,> 10,"Cn1c2c(c3ccccc31)CCN(C(=O)c1cc3ncc(Br)cn3n1)CC2 [Example 17, (6-Bromo-pyrazolo[1,5-a]pyrimidin-2-yl)-(6-methyl-1,4,5,6-tetrahydro-2H-azepino[4,5-b]indol-3-yl)-methanone]"
,,235,,"CC(C)c1nc2c(s1)CCN(C(=O)c1cc3ncc(Cl)cn3n1)CC2 [Example 18, (6-Chloro-pyrazolo[1,5-a]pyrimidin-2-yl)-(2-isopropyl-4,5,7,8-tetrahydro-thiazolo[4,5-d]azepin-6-yl)-methanone]"
,,128,,"O=C(c1cc2ncc(Cl)cn2n1)N1CCc2[nH]c(=O)sc2CC1 [Example 19, 6-(6-Chloro-pyrazolo[1,5-a]pyrimidine-2-carbonyl)-3,4,5,6,7,8-hexahydro-thiazolo[4,5-d]azepin-2-one]"

Compound,"activity on 11βHSD1 (assay 2), in words (11β-HSD1)","activity in assay 1 (mGlu5), in words (human mGlu5a receptor)",IC50 (human mGlu5a receptor) [nM],IC50 (11β-HSD1) [µM]
"(6-Bromo-pyrazolo[1,5-a]pyrimidin-2-yl)-(2-methyl-4,5,7,8-tetrahydro-3H-1lambda*4*-thiazolo[4,5-d]azepin-6-yl)-methanone [Example 6]",,,43,> 10
